Earlier results as cited in patent US20110236538A1, “CHITIN DERIVATIVE AND NATURAL SWEETENER CONJUGATE FOR CONTROLLING INGESTED FAT IN HUMANS AND HAVING SWEETENING PROPERTIES” (priority 2008, published 2011).

Conditions: successive lines = successive pKa of di- and trivalent acids

O=C(O)C(Cl)(Cl)Cl [Trichloroacetic]
pKa (25° C.): 0.70
